From PMC9959553, “Promising Antifungal Molecules against Mucormycosis Agents Identified from Pandemic Response Box®: In Vitro and In Silico Analyses” (Journal of Fungi, 2023) come the findings set out here.

Molecules are shown by their SMILES.

The test concerns R. oryzae UCP1295. Put plainly: Screening of the Pandemic Response Box library at 5 µM. It counts as cell-based, Rhizopus oryzae. Particulars: 48 h, Table S1, mean of the four values. Here is the method: Rhizopus oryzae UCP is the most prevalent Mucorales species in human infections and was used as a reference strain to screen the Pandemic Response Box® library. Screening was performed according to Rollin-Pinheiro and colleagues. Each compound was diluted in RPMI 1640 medium (Sigma Chemical Co., St. Louis, MO, USA), supplemented with 2% glucose and buffered with 3-(N-morpholino) propanesulfonic acid (MOPS) (Sigma Chemical Co., St. Louis, MO, USA) (0.165 mol/L, pH 7.2, from here on referred to as ‘supplemented RPMI’) to reach 5 μM in 96-well microtiter plates. Posaconazole (5 μM) and supplemented RPMI containing 1% DMSO were used as controls (both from Sigma Chemical Co., St. Louis, MO, USA). Conidia (2 × 10^5/mL) were added and incubated for 48 h at 37 °C in a 5% CO2 atmosphere. […] An inhibition of at least 60% was defined as the cut-off to select the promising drugs with antifungal activity against the Rhizopus species.
Take `CCN(CC)CCCC(C)Nc1ccnc2cc(Cl)ccc12` (centres unmarked) [MMV000008]: the “% of growth inhibition, Mean” value is given as -3.5%. Then `COc1cc(Cc2cnc(N)nc2N)cc(OC)c1OC` [MMV000028], with -4.5%; and `COc1cc(C)c2c(Oc3cccc(C(F)(F)F)c3)c(OC)cc(NC(C)CCCN)c2n1.O=C(O)CCC(=O)O` (centres unmarked) [MMV000043], with -36.7%. Then `CCC[C@@H]1C[C@@H](C(=O)N[C@@H]([C@H]2O[C@H](SC)[C@H](O)[C@@H](O)[C@H]2O)[C@H](C)Cl)N(C)C1.Cl` [MMV000051], with -29.6%.

On to `CONC(=N)c1ccc(-c2ccc(-c3ccc(C(=N)NOC)cc3)o2)cc1` [MMV000059], for which the “% of growth inhibition, Mean” value was -38.5%. `CCN(CC)CCn1c(=N)n(CC(O)COc2ccc(Cl)cc2Cl)c2ccccc21` (centres unmarked) [MMV000725]: the “% of growth inhibition, Mean” value is -27.5%. As to `O=C(c1ccccc1)N1CCN(c2ccccc2NC(=O)C(Cl)(Cl)Cl)CC1` [MMV001014], the “% of growth inhibition, Mean” value was -10.6%.

For the compound `Cc1c(OCC(F)(F)F)ccnc1C[S+]([O-])c1nc2ccccc2[nH]1` (centres unmarked) [MMV001438], the “% of growth inhibition, Mean” value is on record as -13.2%. Under `CCCCc1ccc(C(=O)O)nc1` [MMV001726] stands -15.9%. Regarding `Nc1nc(O)c2ncn(COC(CO)CO)c2n1` [MMV001761], the “% of growth inhibition, Mean” value is given as -10.5%.

`CC1=C(/C=C/C(C)=C/C=C/C(C)=C/C(=O)Nc2ccc(O)cc2)C(C)(C)CCC1` [MMV001793]: the “% of growth inhibition, Mean” value is recorded as -8.1%. For `Nc1nc2c(ncn2COCCO)c(=O)[nH]1` [MMV001961], the “% of growth inhibition, Mean” value was -10.2%. Then `Clc1ccc(Cn2c(CN3CCCC3)nc3ccccc32)cc1` [MMV002015], with -4.7%. Under `NNC(=O)c1ccncc1` [MMV002169] stands -5.4%. Take `O=C(O)CCNC(=O)c1ccccc1` [MMV002224]: the “% of growth inhibition, Mean” value was -6.2%. On to `Cc1onc(-c2ccccc2)c1-c1ccc(S(N)(=O)=O)cc1` [MMV002260], for which the “% of growth inhibition, Mean” value was -15.5%. Under `Cc1ncc([N+](=O)[O-])n1CC(C)O` (centres unmarked) [MMV002287] stands -34.1%; under `OC(Cn1cncn1)(Cn1cncn1)c1ccc(F)cc1F` [MMV002337], -36.5%; under `CCn1cc(C(=O)O)c(=O)c2cc(F)c(N3CCNC(C)C3)c(F)c21.Cl` (centres unmarked) [MMV002350], -4.3%. Consider `C[C@@H]1O[C@@H]1P(=O)(O)O` [MMV002354], for which the “% of growth inhibition, Mean” value is -22.5%. In the case of `NC[C@H]1O[C@H](O[C@H]2[C@H](O)[C@@H](O[C@H]3O[C@H](CO)[C@@H](O)[C@H](N)[C@H]3O)[C@H](N)C[C@@H]2N)[C@H](N)C[C@@H]1O` [MMV002459], the “% of growth inhibition, Mean” value was -14.1%.

Turning to `CSc1ccc2c(c1)C(N1CCN(C)CC1)Cc1ccccc1S2` (centres unmarked) [MMV002505], the “% of growth inhibition, Mean” value is 8.0%. As for `CC[C@@H]1C(=O)OC[C@@H]1Cc1cncn1C.Cl` [MMV002516], the “% of growth inhibition, Mean” value is -16.1%. As for `CO/N=C(\C(=O)N[C@@H]1C(=O)N2C(C(=O)OCOC(=O)C(C)(C)C)=C(/C=C\c3scnc3C)CS[C@H]12)c1csc(N)n1` [MMV002560], the “% of growth inhibition, Mean” value is on record as -6.4%. As to `COC(=O)Nc1nc2ccc([S+]([O-])c3ccccc3)cc2[nH]1` (centres unmarked) [MMV002565], the “% of growth inhibition, Mean” value is -39.5%.

Regarding `O=C1CCC(N2C(=O)c3ccccc3C2=O)C(=O)N1` (centres unmarked) [MMV002612], the “% of growth inhibition, Mean” value is recorded as -21.8%. Consider `NCc1ccc(S(N)(=O)=O)cc1` [MMV002665], for which the “% of growth inhibition, Mean” value is on record as -2.2%. Under `C[N+]1(C)CCCC(OC(=O)C(O)(c2ccccc2)c2ccccc2)C1` (centres unmarked) [MMV002676] stands -16.3%; under `Cc1cc(C2CCCCC2)n(O)c(=O)c1` [MMV002731], -13.0%. Consider `Cc1onc(-c2ccccc2Cl)c1C(=O)N[C@@H]1C(=O)N2[C@@H]1SC(C)(C)[C@@H]2C(=O)O` [MMV002740], for which the “% of growth inhibition, Mean” value is on record as -27.0%. Under `COc1ccc2c(c1OC)C(=O)OC2C1c2c(cc3c(c2OC)OCO3)CCN1C` (centres unmarked) [MMV002780] stands -7.9%; under `C[C@H]1CC[C@]2(NC1)O[C@H]1C[C@H]3[C@@H]4CC[C@H]5C[C@@H](O)CC[C@]5(C)[C@H]4CC[C@]3(C)[C@H]1[C@@H]2C.Cl` [MMV003069], -12.1%; under `CC[C@H]1OC(=O)[C@H](C)[C@@H](O[C@H]2C[C@@](C)(OC)[C@@H](O)[C@H](C)O2)[C@H](C)[C@@H](O[C@@H]2O[C@H](C)C[C@H](N(C)C)[C@H]2O)[C@](C)(O)C[C@@H](C)C(=O)[C@H](C)[C@@H](O)[C@]1(C)O` [MMV003137], -11.8%. Under `COC(=O)Nc1nc2cc(Sc3ccccc3)ccc2[nH]1` [MMV003143] stands -14.1%; under `NC(=O)c1cnccn1` [MMV003249], -5.2%.

Regarding `Cc1oncc1C(=O)Nc1ccc(C(F)(F)F)cc1` [MMV003291], the “% of growth inhibition, Mean” value is listed as 4.9%. For `CC#C[C@]1(O)CC[C@H]2[C@@H]3CCC4=CC(=O)CCC4=C3[C@@H](c3ccc(N(C)C)cc3)C[C@@]21C` [MMV003297], the “% of growth inhibition, Mean” value was -3.7%. Then `COc1ccc(C2CNC(=O)C2)cc1OC1CCCC1` (centres unmarked) [MMV003738], with -1.4%; and `CC[C@H](CO)Nc1nc(NCc2ccccc2)c2ncn(C(C)C)c2n1` [MMV003820], with -13.4%; and `Nc1nc(=O)[nH]cc1F` [MMV004508], with -32.5%. Under `Cc1ccc(NC(=O)c2ccc(CN3CCN(C)CC3)cc2)cc1Nc1nccc(-c2cccnc2)n1` [MMV009948] stands -3.0%; under `Cc1[nH]c2ccccc2c1CCNCc1ccc(/C=C/C(=O)NO)cc1` [MMV010036], 1.8%. Under `COc1ccc2nc(-c3ccccc3)cc(O)c2c1` [MMV011565] stands -42.1%; under `O=C(O)c1cc(-c2ccccc2)nc2ccccc12` [MMV018362], -11.4%; under `CN1CCN(c2ccc3[nH]c(-c4ccc5[nH]c(-c6ccc(O)cc6)nc5c4)nc3c2)CC1` [MMV020752], -8.9%.

On to `Nc1nc(N)c2c(Sc3ccccc3)cccc2n1` [MMV021759], for which the “% of growth inhibition, Mean” value was -3.3%. Then `Cc1nc(Nc2ccc(F)cc2)nc(N2CCc3ccccc3C2C)c1C` (centres unmarked) [MMV030787], with -5.0%; and `Nc1nnc(-c2ccc(Cl)cc2)s1` [MMV046261], with -8.7%.

Consider `NC(=O)c1c(N)sc2c1CCCCC2` [MMV056052], for which the “% of growth inhibition, Mean” value is on record as -8.7%.

As to `CC1CN(c2ncnc3c2c(-c2ccccc2)cn3-c2ccc(F)cc2)CC(C)O1` (centres unmarked) [MMV093250], the “% of growth inhibition, Mean” value was -16.0%.

For `COc1cc(NS(=O)(=O)c2ccc(C)cc2)c2ncccc2c1` [MMV098836], the “% of growth inhibition, Mean” value was found to be 48.1%.

In the case of `Nc1c(C(=O)NCc2ccco2)c2nc3ccccc3nc2n1CCN1CCCCC1` [MMV099714], the “% of growth inhibition, Mean” value is on record as -2.7%. Under `COc1cc2c(O)c3c(c(-c4ccc5c(c4)OCO5)c2cc1OC)C(=O)OC3` [MMV102270] stands -33.2%.
